For the experiment, the target named is T1, Human PPAR gamma (Homo sapiens, UniProt P37231).
T1 construct: expressed in transfected cells
T1 sequence (P37231 1-505): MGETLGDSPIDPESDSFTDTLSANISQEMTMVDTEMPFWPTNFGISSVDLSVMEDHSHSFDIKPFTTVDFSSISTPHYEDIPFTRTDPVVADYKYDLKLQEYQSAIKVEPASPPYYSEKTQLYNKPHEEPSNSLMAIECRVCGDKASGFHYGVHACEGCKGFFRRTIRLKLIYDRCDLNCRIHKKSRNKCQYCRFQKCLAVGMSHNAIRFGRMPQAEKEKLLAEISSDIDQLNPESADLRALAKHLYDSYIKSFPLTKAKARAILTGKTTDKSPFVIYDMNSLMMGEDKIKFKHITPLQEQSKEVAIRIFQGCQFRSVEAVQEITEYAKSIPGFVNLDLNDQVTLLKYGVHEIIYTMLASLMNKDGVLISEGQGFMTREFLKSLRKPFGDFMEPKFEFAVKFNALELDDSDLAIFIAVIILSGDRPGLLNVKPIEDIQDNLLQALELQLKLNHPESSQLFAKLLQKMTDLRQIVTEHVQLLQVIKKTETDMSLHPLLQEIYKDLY
Kind of experiment: Cellular PPAR gamma luciferase reporter assay. It is filed as cell-based. Here is the method:
Cell Based PPAR Gamma Assay Protocol
To perform cell based assays a luciferase assay is performed in 96 well plates as follows:
Dilution steps and addition of diluted compounds is done using a Beckman Biomek 2000 or Beckman FX robot.
• Aspirate medium from cells • Freeze plates at −20° C. (optional) • Thaw plates for 30 min (if necessary) • Add 50 μl Bright-Glo-Luciferase Assay Reagent (Promega, Cat. No. E2650) • Incubate for 10 min in the dark • Measure luminescence 2 sec per well (Wallac Microbeta) Data Analysis: […]
(In general: Reporter assays use an easily measured gene product as a stand-in for the process of interest.)

As usually defined, the EC50 is the midpoint of the concentration-response curve. High values mean a less potent agent, low ones a more potent agent. Compound `CCCc1c(OCCCOc2ccc(OCC(=O)O)cc2)ccc(C(C)=O)c1O` [Compound 2] returned an EC50 of 1100 nM.
